Values quoted from earlier work, collected in PMC9944328 (Nature Communications, 2023).

Tested on: SSTR2 Y302A mutant
Set-up: method as in earlier work
Details: Y302(7.43)A; ref 20 of peer review file (Zhao, W. et al., 2022); cited from earlier work

In the case of `C[C@@H](O)[C@@H]1NC(=O)[C@H](CCCCN)NC(=O)[C@@H](Cc2c[nH]c3ccccc23)NC(=O)[C@H](Cc2ccccc2)NC(=O)[C@@H](NC(=O)[C@H](N)Cc2ccccc2)CSSC[C@@H](C(=O)N[C@H](CO)[C@@H](C)O)NC1=O` [octreotide], the Binding to mutant is given as “nearly abolished the binding”.
